Test results published in US9029389B2 (Institut Pasteur Korea, priority 2011, dated 2015).

The compounds below were run against T1, Human 5-lipoxygenase (Homo sapiens, UniProt P09917) (assay: Activity of compounds against 5-LO enzyme (LTB4 measurement and/or fluorescence method)). Conditions: 5-LO, single concentration of 10 uM in duplicate.
T1 construct: purchased Cayman 60402; host or cells: insect cells
T1 sequence (P09917 1-674): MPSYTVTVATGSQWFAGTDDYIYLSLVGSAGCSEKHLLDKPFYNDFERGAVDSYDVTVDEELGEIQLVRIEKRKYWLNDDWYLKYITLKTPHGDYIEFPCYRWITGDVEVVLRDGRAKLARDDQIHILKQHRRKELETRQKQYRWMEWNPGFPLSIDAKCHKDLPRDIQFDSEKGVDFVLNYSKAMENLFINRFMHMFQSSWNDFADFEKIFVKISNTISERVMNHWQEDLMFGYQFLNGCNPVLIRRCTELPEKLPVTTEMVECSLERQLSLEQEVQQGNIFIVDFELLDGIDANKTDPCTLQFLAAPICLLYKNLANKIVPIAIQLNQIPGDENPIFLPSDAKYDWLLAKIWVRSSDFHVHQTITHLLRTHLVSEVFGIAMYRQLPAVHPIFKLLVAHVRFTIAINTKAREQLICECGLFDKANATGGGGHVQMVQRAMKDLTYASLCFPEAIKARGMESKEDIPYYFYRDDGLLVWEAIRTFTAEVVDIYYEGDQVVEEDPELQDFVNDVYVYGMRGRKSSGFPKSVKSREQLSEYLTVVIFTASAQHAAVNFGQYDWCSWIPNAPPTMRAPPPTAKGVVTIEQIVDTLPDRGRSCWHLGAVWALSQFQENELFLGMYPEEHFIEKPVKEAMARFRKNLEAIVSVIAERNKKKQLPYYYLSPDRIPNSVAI
Type: biochemical
Method in brief: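 Two read-outs: LTB4 measured by EIA and/or LC/MS/MS with LTB4-d4 standard after 15 min RT compound preincubation with insect-cell 5-LO and a 5 min 37 °C reaction on 3 uM arachidonic acid (0.1 mM ATP, pH 7.4). The room-temperature fluorescence format used 20 uM H2DCFDA, 100 uM ATP, 3 uM arachidonic acid, 5 min; IC50 from 6/11-point curves.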

inhibition at 10 µM | SMILES
< 40% | Cc1nc2c(C(F)(F)F)cccn2c1C(=O)NCc1ccccc1 [compound 36, N-Benzyl-2-methyl-8-(trifluoromethyl)imidazo[1,2-a]pyridine-3-carboxamide]
< 40% | CCc1nc2cc(Cl)ccn2c1C(=O)NCc1ccc(-c2ccc(F)cc2)cc1 [compound 56, 7-Chloro-2-ethyl-N-((4′-fluorobiphenyl-4-yl)methyl)imidazo[1,2-a]pyridine-3-carboxamide]
< 40% | CCc1nc2ccc(Cl)cn2c1CNCc1ccc(N2CCC(O)CC2)cc1 [compound 340, 1-(4-((((6-chloro-2-ethylimidazo[1,2-a]pyridin-3-yl)methyl)amino)methyl)phenyl)piperidin-4-ol]
40 to 69% | CCc1nc2cc(Cl)ccn2c1C(=O)NCc1ccc(-c2ccc(OC)cn2)cc1 [compound 119, 7-Chloro-2-ethyl-N-(4-(5-methoxypyridin-2-yl)benzyl)imidazo[1,2-a]pyridine-3-carboxamide]
40 to 69% | CCc1nc2ccc(F)cn2c1C(=O)NCc1ccc(OCc2ccc(OC(F)(F)F)cc2)cc1 [compound 205, 2-Ethyl-6-fluoro-N-(4-(4-(trifluoromethoxy)benzyloxy)benzyl)imidazo[1,2-a]pyridine-3-carboxamide]
40 to 69% | CCc1nc2ccc(Cl)cn2c1C(=O)NCc1ccn(-c2ccc(OC(F)(F)F)cc2)n1 [compound 132, 6-Chloro-2-ethyl-N-((1-(4-(trifluoromethoxy)phenyl)-1H-pyrazol-3-yl)methyl)imidazo[1,2-a]pyridine-3-carboxamide]
< 40% | Cc1nc2ccccn2c1C(=O)Nc1ccc(OCc2ccccc2)cc1 [compound 14, N-(4-(Benzyloxy)phenyl)-2-methylimidazo[1,2-a]pyridine-3-carboxamide]
< 40% | COC(=O)c1ccc(CNC(=O)c2c(C)nc3ccccn23)cc1 [compound 25, Methyl 4-((2-methylimidazo[1,2-a]pyridine-3-carboxamido)methyl)benzoate]
< 40% | CCc1nc2ccc(Cl)cn2c1C(=O)N1CCC(OCc2ccccc2F)CC1 [compound 337, (6-chloro-2-ethylimidazo[1,2-a]pyridin-3-yl)(4-((2-fluorobenzyl)oxy)piperidin-1-yl)methanone]
< 40% | CCc1nc2ccc(Cl)cn2c1C(=O)NCc1ccc(N2CCC(C(=O)Cc3ccc(F)cc3)CC2)cc1 [compound 325, 6-chloro-2-ethyl-N-(4-(4-(2-(4-fluorophenyl)acetyl)piperidin-1-yl)benzyl)imidazo[1,2-a]pyridine-3-carboxamide]
< 40% | Cc1nc2ccccn2c1C(=O)NCC1CCN(C(=O)OC(C)(C)C)CC1 [compound 10, tert-Butyl 4-((2-methylimidazo[1,2-a]pyridine-3-carboxamido)methyl)piperidine-1-carboxylate]
< 40% | CCc1nc2ccc(Cl)cn2c1C(=O)NCc1ccc(N2CCC(c3ccc(OC(F)(F)F)cc3)CC2)cc1 [compound 267, 6-Chloro-2-ethyl-N-(4-(4-(4-(trifluoromethoxy)phenyl)piperidin-1-yl)benzyl)imidazo[1,2-a]pyridine-3-carboxamide]
> 69% | CCc1nc2ccc(C)cn2c1C(=O)NCc1ccc(Oc2ccccc2)cc1 [compound 58, 2-Ethyl-6-methyl-N-(4-phenoxybenzyl)imidazo[1,2-a]pyridine-3-carboxamide]
40 to 69% | CCc1nc2c(OC)cccn2c1C(=O)NCc1ccc(N2CCN(c3ccc(F)cc3)CC2)cc1 [compound 263, 2-Ethyl-N-(4-(4-(4-fluorophenyl)piperazin-1-yl)benzyl)-8-methoxyimidazo[1,2-a]pyridine-3-carboxamide]
< 40% | Cc1nc2ccccn2c1C(=O)NCC1CCCCC1 [compound 9, N-(Cyclohexylmethyl)-2-methylimidazo[1,2-a]pyridine-3-carboxamide]
40 to 69% | CCc1nc2ccc(Cl)cn2c1C(=O)NCc1ccc(N2CCC(Oc3ccc(C(F)(F)F)cc3)CC2)cc1 [compound 168, 6-Chloro-2-ethyl-N-(4-(4-(4-(trifluoromethyl)phenoxy)piperidin-1-yl)benzyl)imidazo[1,2-a]pyridine-3-carboxamide]
< 40% | CCc1nc2ccc(Cl)cn2c1CNCCc1ccncc1 [compound 344, N-((6-chloro-2-ethylimidazo[1,2-a]pyridin-3-yl)methyl)-2-(pyridin-4-yl)ethanamine]

inhibition at 10 µM | SMILES
40 to 69% | CCc1nc2cc(Cl)ccn2c1NC(=O)c1ccc(-c2ccccc2)cc1 [compound 115, N-(7-Chloro-2-ethylimidazo[1,2-a]pyridin-3-yl)biphenyl-4-carboxamide]
> 69% | CCc1nc2ccc(Cl)cn2c1CN1CCC(OCc2ccc(OC(F)(F)F)cc2)CC1 [compound 347, 6-chloro-2-ethyl-3-((4-((4-(trifluoromethoxy)benzyl)oxy)piperidin-1-yl)methyl)imidazo[1,2-a]pyridine]
< 40% | CCc1nc2ccc(Cl)cn2c1C(=O)NCc1ccc(N2CCC(NC(=O)Cc3ccc(F)cc3)CC2)cc1 [compound 316, 6-chloro-2-ethyl-N-(4-(4-(2-(4-fluorophenyl)acetamido)piperidin-1-yl)benzyl)imidazo[1,2-a]pyridine-3-carboxamide]
< 40% | CCc1nc2ccc(Cl)cn2c1C(=O)NCc1ccc(N2CCN(C(=O)c3ccc(F)cc3)CC2)cc1 [compound 319, 6-chloro-2-ethyl-N-(4-(4-(4-fluorobenzoyl)piperazin-1-yl)benzyl)imidazo[1,2-a]pyridine-3-carboxamide]
< 40% | CCCc1nc2ccccn2c1C(=O)NCc1ccccc1 [compound 37, N-Benzyl-2-propylimidazo[1,2-a]pyridine-3-carboxamide]
> 69% | CCc1nc2ccc(Cl)cn2c1C(=O)NCc1ccc(N2CCC(c3ccc(Cl)cc3)CC2)cc1 [compound 296, 6-Chloro-N-(4-(4-(4-chlorophenyl)piperidin-1-yl)benzyl)-2-ethylimidazo[1,2-a]pyridine-3-carboxamide]
< 40% | CCc1nc2cc(Cl)ccn2c1C(=O)NCc1ccc(N2CCCCC2)cc1 [compound 89, 7-Chloro-2-ethyl-N-(4-(piperidin-1-yl)benzyl)imidazo[1,2-a]pyridine-3-carboxamide]
< 40% | CCc1nc2ccc(Cl)cn2c1C(=O)NCc1ccc(N2CCC(C(=O)N(C)C)CC2)cc1 [compound 293, 6-Chloro-N-(4-(4-(dimethylcarbamoyl)piperidin-1-yl)benzyl)-2-ethylimidazo[1,2-a]pyridine-3-carboxamide]
< 40% | Cc1nc2ccccn2c1NC(=O)Cc1ccccc1 [compound 41, N-(2-Methylimidazo[1,2-a]pyridin-3-yl)-2-phenylacetamide]
< 40% | CCc1nc2c(-c3ccncc3)cccn2c1C(=O)NCc1ccc(N2CCN(c3ccc(F)cc3)CC2)cc1 [compound 283, 2-Ethyl-N-(4-(4-(4-fluorophenyl)piperazin-1-yl)benzyl)-8-(pyridin-4-yl)imidazo[1,2-a]pyridine-3-carboxamide]
< 40% | CCc1nc2ccc(Cl)cn2c1C(=O)NCc1ccc(OCc2ccc(F)cc2)cc1 [compound 172, 6-Chloro-2-ethyl-N-(4-(4-fluorobenzyloxy)benzyl)imidazo[1,2-a]pyridine-3-carboxamide]
< 40% | CCc1nc2cc(Cl)ccn2c1C(=O)NCc1ccc(OCc2ccc(OC(F)(F)F)cc2)cc1 [compound 171]
40 to 69% | CCc1nc2cc(Cl)ccn2c1C(=O)NCc1ccc(N2CCC(C)CC2)cc1 [compound 195, 7-Chloro-2-ethyl-N-(4-(4-methylpiperidin-1-yl)benzyl)imidazo[1,2-a]pyridine-3-carboxamide]
40 to 69% | CCc1nc2ccc([N+](=O)[O-])cn2c1C(=O)NCc1ccc(OC(F)(F)F)cc1 [compound 69, 2-Ethyl-6-nitro-N-(4-(trifluoromethoxy)benzyl)imidazo[1,2-a]pyridine-3-carboxamide]
> 69% | CCc1nc2cc(Cl)ccn2c1C(=O)NCc1ccc(N2CCC(COC(F)F)CC2)cc1 [compound 295, 7-Chloro-N-(4-(4-((difluoromethoxy)methyl)piperidin-1-yl)benzyl)-2-ethylimidazo[1,2-a]pyridine-3-carboxamide]
< 40% | CCc1nc2ccc(Cl)cn2c1C(=O)NCc1ccc(OC(C)C)cc1 [compound 65]
< 40% | CCc1nc2ccc(Cl)cn2c1C(=O)N1CCC(OCc2ccc(C(F)(F)F)cc2)CC1 [compound 334, (6-chloro-2-ethylimidazo[1,2-a]pyridin-3-yl)(4-((4-(trifluoromethyl)benzyl)oxy)piperidin-1-yl)methanone]

Same assay, conditions: 6 or 11 point dose response in duplicate

IC50 | SMILES
1 to 20 µM | CCc1nc2ccc(C)cn2c1C(=O)NCc1ccc(Oc2ccccc2)cc1 [compound 58, 2-Ethyl-6-methyl-N-(4-phenoxybenzyl)imidazo[1,2-a]pyridine-3-carboxamide]
> 20 µM | CCc1nc2cc(Cl)ccn2c1C(=O)NCc1ccc(N2CCC(COC(F)F)CC2)cc1 [compound 295, 7-Chloro-N-(4-(4-((difluoromethoxy)methyl)piperidin-1-yl)benzyl)-2-ethylimidazo[1,2-a]pyridine-3-carboxamide]
